Source: patent publication US11078188B2, “Dihydroquinoxaline bromodomain recognition protein inhibitor, preparation method and use thereof” (SHANGHAI INSTITUTE OF MATERIA MEDICA, CHINESE ACADEMY OF …, priority 2017, dated 2021)

Columns and labels:
BRD4 (I) = BRD4 (I) (Homo sapiens (Human), UniProt O60885); experiment: Fluorescence anisotropy (FA) binding test on BRD4 (I); conditions: BRD4 (I) 10 nM, fluorescent (+)-JQ1 substrate 5 nM, read-out: BRD4 (1) IC50
Procedure: The binding activity of the compound to BRD4 (I) was tested using a fluorescence anisotropy (FA) method. The principle of FA test is to calculate and analyze the fluorescence polarization values in the horizontal and vertical directions by detecting the change of molecular weight before and after the interaction of fluorescein-labeled small molecules with other molecules. If the equilibrium of the binding between the fluorescently labeled small molecule and macromolecule is established, it will move slowly when excited, and the measured fluorescence polarization value will increase. If the binding between the fluorescently labeled small molecule and the macromolecule is replaced by another ligand, its rotation or flipping speed in the free state will be faster, and the emitted light will be depolarized relative to the plane of the excitation light, and the measured polarized light value will decrease to calculate the fluorescence anisotropy of the sample.
Expression and purification of the BRD4(I) recognition domain: colonies of newly transformed plasmid DNA from E. coli BL21(DE3)-condon plus-RIL cells were cultivated in 50 mL of Terrific Broth medium containing 50 μg/mL kanamycin and 34 μg/mL chloramphenicol at 37° C. overnight (starting culture). The starting culture was then diluted 100-fold in 1 L of fresh TB medium and the cells were grown at 37° C. to an optical density of about 0.8 at OD600 and then the temperature was lowered to 16° C. When the system was equilibrated at 16° C., the optical density at OD600 was approximately 1.2, and protein expression was induced with 0.2 mmol of isopropyl-β-D-thiogalactopyranoside (IPTG) overnight at 16° C. Bacteria were harvested by centrifugation (4000×g, 20 minutes, 4° C.) and stored as a pellet at −80° C. The cells expressing His 6-tagged protein was resuspend in lysis buffer [50 mmol 4-hydroxyethylpiperazineethanesulfonic acid (HEPES), 25° C., pH 7.5, 500 mmol NaCl, 10 mmol imidazole, 5% glycerol and freshly added 0.5 mmol of tris(2-carboxyethyl)phosphine hydrochloride (TCEP) and 1 mmol of phenylmethanesulfonyl fluoride (PMSF)] and lysed at 4° C. using JN 3000PLUS high pressure homogenizer (JNBIO-Guangzhou, China). The lysate was clarified by centrifugation (12,000×g for 1 hour at 4° C.) and applied to a nickel-nitriloacetate agarose column. The column was washed once with 50 mL of wash buffer containing 30 mmol of imidazole. The protein was eluted using imidazole in an elution buffer in a stepwise elution (100-250 mmol imidazole in 50 mmol HEPES, 25° C., pH 7.5, 500 mmol NaCl, 5% glycerol). All fractions were collected and monitored by SDS-polyacrylamide gel electrophoresis (Bio-Rad Criterion TM Precast Gels, 4-12% Bis-Tris, 1.0 mm, from Bio-Rad, CA). After 1 mmol of dithiothreitol (DTT) was added, the eluted proteins were treated with tobacco […] virus (TEV) protease overnight at 4° C. to remove the His6 tag. The protein was concentrated and further purified by size exclusion chromatography on a Superdex 75 16/60 HiLoad gel filtration column. The samples were monitored by SDS-polyacrylamide gel electrophoresis and concentrated to 8-10 mg/mL with gel filtration buffer, 10 mmol Hepes pH 7.5, 500 mM NaCl, 1 mmol DTT, and used for protein binding assays and crystallization.
The fluorogenic substrate was (+)-JQ1 linked to a fluorescent molecule and the working concentration was 5 nM. BRD4 (I) protein had 10 nM of working concentration and the total reaction system was 40 μL. The buffer was 50 mM 4-hydroxyethylpiperazineethanesulfonic acid (HEPES) pH 7.4, 150 mM NaCl, 0.5 mM 3[(3-cholamidopropyl)dimethylammonio]propanesulfonate (CHAPS). […] The final concentration of DMSO was chosen to be 0.2%, taking into account the solubility of the compound and the effect of DMSO on the assay. All measurements were made under these conditions. […]

[1] = test system: human myeloma cells MM.1S; experiment: MM.1S cell viability, CCK-8 method; type: cell-based; conditions: for IC50: 72 h treatment, CCK-8; for inhibitory activity against the MM.1S cell line (in words): compared with positive (+)-JQ1
Procedure: The MM.1S cell line was tested for cell viability. The test methods were as follows: human myeloma cells MM.1S were treated with compound for 72 h, and the proliferation inhibition effect and degree of the compound were detected by CCK-8 method.

With Cc1ccc(-n2nnnc2-c2ccc3c(c2)N(C2CCCC2)C(C)C(=O)N3C)cc1 (stereo not drawn) [Example 4] the IC50 (BRD4 (I)) was 18.4 nM.

C[C@@H]1C(=O)N(C)c2ccc(-c3nc(C(=O)N4CCN(C)CC4)nn3-c3ccccc3)cc2N1C1CCCC1 [Example 7] showed an IC50 (BRD4 (I)) of 7.6 nM.

In the case of Cc1ccc(-n2nc(C(=O)N3CCN(C)CC3)nc2-c2ccc3c(c2)N(C2CCCC2)[C@H](C)C(=O)N3C)c(C)c1 [Example 9], the IC50 (BRD4 (I)) is reported as 8.2 nM and the IC50 ([1]; Homo sapiens, MM1.S) is reported as 23 ± 7.42 nM.

For CCN1CCN(C(=O)c2nc(-c3ccc4c(c3)N(C3CCCC3)[C@H](C)C(=O)N4C)n(-c3ccc(C)cc3)n2)CC1 [Example 10], the IC50 (BRD4 (I)) was 4.96 nM and the IC50 ([1]; Homo sapiens, MM1.S) was 25.8 ± 0.52 nM.

Work on Cc1ccc(-n2nc(C(=O)N3CCN(C4CC4)CC3)nc2-c2ccc3c(c2)N(C2CCCC2)[C@H](C)C(=O)N3C)cc1 [Example 11] yielded an IC50 (BRD4 (I)) of 5.08 nM.

Work on Cc1ccc(-n2nc(C(=O)N(C)CCN(C)C)nc2-c2ccc3c(c2)N(C2CCCC2)[C@H](C)C(=O)N3C)cc1 [Example 13] yielded an IC50 (BRD4 (I)) of 8.3 nM and an IC50 ([1]; Homo sapiens, MM1.S) of 22.4 ± 1.4 nM.

With Cc1ccc(-n2nc(C(=O)N3CC4CCC(C3)N4C)nc2-c2ccc3c(c2)N(C2CCCC2)[C@H](C)C(=O)N3C)cc1 [Example 14] the IC50 (BRD4 (I)) was 4.5 nM, the IC50 ([1]; Homo sapiens, MM1.S) was 10.7 ± 1.71 nM and the “inhibitory activity against the MM.1S cell line (in words)” value (“inhibitory activity” below) [1] was “better inhibitory activity against the MM.1S cell line than the positive (+)-JQ1”.

Cc1ccc(-n2nc(C(=O)N3CCN(C(C)C)CC3)nc2-c2ccc3c(c2)N(C2CCCC2)[C@H](C)C(=O)N3C)cc1 [Example 15] was tested, and the IC50 (BRD4 (I)) was 4.2 nM.

Cc1ccc(-n2nc(C(=O)N3CCN(C)CC3)nc2-c2ccc3c(c2)N(C2CCCC2)[C@H](C)C(=O)N3C)cc1F [Example 16] gave an IC50 (BRD4 (I)) of 4.06 nM and an IC50 ([1]; Homo sapiens, MM1.S) of 29.4 ± 9.3 nM.

For Cc1ccc(-n2nc(C(=O)N3C4CCC3CN(C)C4)nc2-c2ccc3c(c2)N(C2CCCC2)[C@H](C)C(=O)N3C)cc1 [Example 18], the IC50 (BRD4 (I)) was 6.5 nM, the IC50 ([1]; Homo sapiens, MM1.S) was 10.22 ± 0.02 nM and the “inhibitory activity” value [1] was “better inhibitory activity against the MM.1S cell line than the positive (+)-JQ1”.

For Cc1ccc(-n2nc(C(=O)N3CCCN(C)CC3)nc2-c2ccc3c(c2)N(C2CCCC2)[C@H](C)C(=O)N3C)cc1 [Example 19], the IC50 (BRD4 (I)) was 4.6 nM.

Cc1ccc(-n2nc(C(=O)N3CCC4(CCCC4)CC3)nc2-c2ccc3c(c2)N(C2CCCC2)[C@H](C)C(=O)N3C)cc1 [Example 20] gave an IC50 (BRD4 (I)) of 25.4 nM.

Cc1ccc(-n2nc(C(=O)N3CCC4(CCOC4)CC3)nc2-c2ccc3c(c2)N(C2CCCC2)[C@H](C)C(=O)N3C)cc1 [Example 21] showed an IC50 (BRD4 (I)) of 7.1 nM.

Molecule Cc1ccc(-n2nc(C(=O)N3CCN4CCCC4C3)nc2-c2ccc3c(c2)N(C2CCCC2)[C@H](C)C(=O)N3C)cc1 (stereo partly drawn) [Example 22] has an IC50 (BRD4 (I)) of 8.1 nM.

Cc1ccc(-n2nc(C(=O)N3C[C@@H](NC(=O)OC(C)(C)C)C4(CC4)C3)nc2-c2ccc3c(c2)N(C2CCCC2)[C@H](C)C(=O)N3C)cc1 [Example 23] was tested, and the IC50 (BRD4 (I)) was 9.2 nM.

Cc1ccc(-n2nc(C(=O)N3C[C@@H](N)C4(CC4)C3)nc2-c2ccc3c(c2)N(C2CCCC2)[C@H](C)C(=O)N3C)cc1 [Example 24] showed an IC50 (BRD4 (I)) of 5.3 nM.

Cc1ccc(-n2nc(C(=O)N3C4CCC3CN(C)C4)cc2-c2ccc3c(c2)N(C2CCCC2)[C@H](C)C(=O)N3C)cc1 [Example 28] gave an IC50 (BRD4 (I)) of 6.7 nM.

For Cc1ccc(-n2nc(C(=O)N3CC4CCC(C3)N4C)cc2-c2ccc3c(c2)N(C2CCCC2)[C@H](C)C(=O)N3C)cc1 [Example 29], the IC50 (BRD4 (I)) was 7.7 nM.

Cc1ccc(-n2c(C)nnc2-c2ccc3c(c2)N(C2CCCC2)[C@H](C)C(=O)N3C)cc1 [Example 32] was tested, and the IC50 (BRD4 (I)) was 5.1 nM.

In the case of Cc1ccc(-n2nc(C(=O)N3CCN(C)CC3)nc2-c2ccc3c(c2)N(C2CC2)C(C)C(=O)N3C)c(C)c1 (stereo not drawn) [Example 34], the IC50 (BRD4 (I)) is reported as 13.9 nM, the IC50 ([1]; Homo sapiens, MM1.S) is reported as 9.11 ± 2.91 nM and the “inhibitory activity” value [1] is reported as “better inhibitory activity against the MM.1S cell line than the positive (+)-JQ1”.

In the case of CCN1CCN(C(=O)c2nc(-c3ccc4c(c3)N(C3CC3)C(C)C(=O)N4C)n(-c3ccc(C)cc3C)n2)CC1 (stereo not drawn) [Example 35], the IC50 (BRD4 (I)) is reported as 14.5 nM, the IC50 ([1]; Homo sapiens, MM1.S) is reported as 15.5 ± 7.42 nM and the “inhibitory activity” value [1] is reported as “better inhibitory activity against the MM.1S cell line than the positive (+)-JQ1”.

For Cc1ccc(-n2nc(C(=O)N3C[C@@H](C)N[C@@H](C)C3)nc2-c2ccc3c(c2)N(C2CC2)C(C)C(=O)N3C)cc1 (stereo partly drawn) [Example 36], the IC50 (BRD4 (I)) was 18.5 nM, the IC50 ([1]; Homo sapiens, MM1.S) was 3.13 nM and the “inhibitory activity” value [1] was “better inhibitory activity against the MM.1S cell line than the positive (+)-JQ1”.

For Cc1ccc(-n2nc(C(=O)N3C[C@@H](C)N[C@@H](C)C3)nc2-c2ccc3c(c2)N(C(C)C)[C@H](C)C(=O)N3C)cc1 [Example 37], the IC50 (BRD4 (I)) was 15.1 nM, the IC50 ([1]; Homo sapiens, MM1.S) was 18.2 nM and the “inhibitory activity” value [1] was “better inhibitory activity against the MM.1S cell line than the positive (+)-JQ1”.

Molecule Cc1ccc(-n2nc(C(=O)N3C[C@@H](C)N[C@@H](C)C3)nc2-c2ccc3c(c2)N(C2COC2)[C@H](C)C(=O)N3C)cc1 [Example 38] has an IC50 (BRD4 (I)) of 13.6 nM.

Cc1ccc(-n2nc(C(=O)N3C[C@@H](C)N[C@@H](C)C3)nc2-c2ccc3c(c2)N(C2CCOCC2)[C@H](C)C(=O)N3C)cc1 [Example 39] gave an IC50 (BRD4 (I)) of 10.3 nM.

Cc1ccc(-n2nc(C(=O)N3C[C@@H](C)N[C@@H](C)C3)nc2-c2ccc3c(c2)N(C2CCC(F)(F)CC2)[C@H](C)C(=O)N3C)cc1 [Example 40] was tested, and the IC50 (BRD4 (I)) was 16 nM.

Cc1ccc(-n2nc(C(=O)N3C[C@@H](C)N[C@@H](C)C3)nc2-c2ccc3c(c2)N(C2CC(F)(F)C2)[C@H](C)C(=O)N3C)cc1 [Example 41] showed an IC50 (BRD4 (I)) of 20.1 nM.

For Cc1ccc(-n2nc(CN3C[C@@H](C)N[C@@H](C)C3)nc2-c2ccc3c(c2)N(C2CCCC2)[C@H](C)C(=O)N3C)cc1 [Example 47], the IC50 (BRD4 (I)) was 6.7 nM.

Work on (+)-JQ1 [reference compound] yielded an IC50 [1] of 19.3 ± 9.3 nM.
